Legend:
[1] = target: T1, T-type calcium channel α1H (Cav3.2) (Homo sapiens, UniProt O95180); test: Two-electrode voltage clamp on Xenopus unfertilized oocytes expressing α1H T-type calcium channel; type: cell-based; settings: test potential -20 mV from -90 mV, read-out: inhibitory effect (blocking percentage), Xenopus oocyte (α1H) at 100 μM
T1 construct: expressed in transfected cells; host or cells: Xenopus laevis unfertilized oocytes injected with cRNA (pGEM-HEA linearised with AflII, T7 transcription)
Method: In order to express a gene encoding T-type calcium channel α1H (Cav3.2) (Cribbs, L. L. et al., Circ. Res., 1998, 83, 103-109) in unfertilized Xenopus oocytes, pGEM-HEA was treated with restriction enzyme AflII to obtain a DNA fragment containing 5′-terminal region having the T-type calcium channel cDNA (AF051946). cRNA having a corresponding sequence to that of the fragment was synthesized using T7 RNA polymerase according to the manufacturer's instructions (mMESSAGE mMACHINE kit, Ambion, Austin, U.S.A.). The synthesized cRNA was quantified by measuring the O.D. value with a spectrophotometer. At this time, unfertilized oocytes were prepared from female Xenopus laevis (Xenopus I, U.S.A.) according to the following method. After the frog's abdomen was incised by about 1 cm, three to four lobes were detached therefrom with scissors and separated into small pieces to which several oocytes were attached. The small pieces were hydrolyzed in OR solution (82.5 mM NaCl, 2.5 mM KCl, 1 mM MgCl2, 5 mM HEPES, pH 7.6) and supplemented with collagenase type IA (Sigma, U.S.A.) to remove defolliculation. After selecting healthy oocytes with a dissecting microscope, they were soaked in SOS solution (100 mM NaCl, 2 mM KCl, 1.8 mM CaCl2, 1 mM MgCl2, 5 mM HEPES, 2.5 mM pyruvate, […] gentamicin, pH 7.6) for 3 to 4 hours to revitalize them. 2 to 5 ng of cRNA was injected into each oocyte using Nano-injector. The oocytes were subjected to a test in order to examine the electrical properties of the channel expressed therefrom 4 to 5 days after the injection while being maintained at 18° C.
The current of the calcium channel expressed from the Xenopus unfertilized oocytes was measured according to a two-electrode voltage clamping method. The current was measured in 10 mM Ba^2+ solution (10 mM Ba(OH)2, 90 mM NaOH, 1 mM KCl, 0.1 mM EDTA, 5 mM HEPES, pH was adjusted to 7.4 with methanesulfonic acid). At this time, the voltage clamp and current measurement were regulated with an amplifier for unfertilized oocytes (Model OC-725C, Warner Instrument Corp., U.S.A.), and analog signals were converted into digital signals using Digidata 2000A (Analog-Digital converter, Axon Instrument). The acquisition, storage and analysis of all data were recorded in Pentium IV computer via pCLAMP8. The data were mainly collected at 5 KHz and filtered at 1 KHz (Model 902 filter; Frequency devices located at Harverhill, Mass., U.S.A.). The T-type current was generated by imposing test electric potential of −20 mV every 15 seconds on the unfertilized oocytes, the potential of which was fixed at −90 mV. A blocking percentage was calculated by comparing the […] before and after the drug treatment.

[2] = tested on: Na+ channel; test: Patch clamp of sodium current in MPG (major pelvic ganglion) neurons; type: cell-based, rat; settings: MPG neuron, 10 μM; for selectivity for the calcium channel versus the sodium channel: from Table 3; for Inhibitory effect, Na+ channel: n.i. = no inhibitory effect
Method: In order to examine the selectivity of the compound of the present invention for other ion channels, the inhibitory effects of KYS05001, KYS05041 and KYS05042 on […] and high voltage-activated Ca2+ channel (HVA) were measured according to a conventional method (Lee, J.-H. et al., J. Neurophysiol. 2002, 87, 2844-2850) using MPG (major pelvic ganglion).
Male Sprague-Dawley rats having about 250 g of an average body weight were employed as experimental animals. After the rats were anesthetized with sodium pentobarbital (50 mg/kg, i.p.), the abdomen was cut open immediately. MPG located on the left side of the prostate was extracted and then transferred in cold (4° C.) Hank's balanced salt solution (HBSS, GibcoBRL). The connective tissue encompassing the ganglion was stripped therefrom and a small gap was made carefully on the naked ganglion with a sharp knife. Then, the ganglion was cultured in 10 ml of modified Earle's balanced salt solution (EBSS, pH 7.4, GibcoBRL) supplemented with 0.7 mg/ml of collagenase (type D), 0.3 mg/ml of trypsin and 0.1 mg/ml of DNAse type I at 35° C. for 1 hour (Zhu et al., J. Physiol. Lond. 1995, 489, 363-375). At this time, 3.6 g/l of glucose and 10 mM HEPES were added to EBSS. After the cultivation was completed, the culture flask was shaken to separate call clusters into a single nerve cell and subjected to centrifugation at 1000 rpm with a clinical centrifuge (International Equipment Company, Mass., U.S.A.). The separated single nerve cells were re-suspended in MEM (GibcoBRL) supplemented with 10% fetal bovine serum, 1% glutamine and 1% penicillin/streptomycin. They were then spread on a polystyrene culture dish (35 mm) coated with poly-L-lysine. The culture dish was incubated at 37° C. humidified incubator (95% air-5% CO2) and the cells were used in the following experiment within 24 hours after the separation.
The voltage-dependent calcium and sodium current were recorded according to a typical patch clamping method using a patch clamp amplifier (Axopatch 1D, Axon Instruments, Foster City, Calif., U.S.A.) at a whole-cell ruptured configuration (Hamill et al., Pflügers Arch. 1981, 391, 85-100). An electrode was made from a borosilicate glass capillary tube (outer diameter; 1.65 mm, inner diameter; 1.2 mm, Corning 7052, Garner Glass Co., Claremont, Calif., U.S.A.) using P-97 Flaming-Brown micropipette puller (Sutter Instrument Co., Novato, Calif., U.S.A.) and forged smoothly by heating with a microforge. The electrode showing 1˜3 MΩ of resistance when filled with a solution was used for the following experiment. The culture dish containing the nerve cells was placed on an inverted microscope and the cell exterior solution was flowed into the dish at a flow rate of about 1˜2 ml/min. The membrane capacitance and series resistance were corrected by 80% or more with an amplifier. The voltage generation and record of calcium current were carried out using S4 software (provided by Dr. Stephen R. Ikeda, National Institute on Alcohol Abuse and Alcoholism, NIH, USA) equipped in Macintosh computer, which was connected to an analogue/digital converter (Digidata 1200, Axon Instruments Co.). The calcium current, which passed through a low band pass filter at 2˜5 kHz, was stored in Macintosh computer and analyzed with IGOR PRO (Wave-Metrics, Lake Oswego, Oreg., U.S.A.). All the experiments were conducted at a room temperature ranging from 20 to 22° C.
The electrode for measuring the calcium current was filled with the solution comprising 120 mM N-methyl-D-glucamine (NMG) methanesulfonate (MS), 20 mM tetraethylammonium (TEA)-MS, 20 mM HCl, 11 mM EGTA, 10 mM HEPES, 1 mM CaCl2, 4 mM MgATP, 0.3 mM Na2GTP and 14 mM tris-phosphocreatine (pH 7.2, 290 mOsm). The extracellular infusion fluid was composed of 140 mM MS, 145 mM TEA-OH, 10 mM HEPES, 15 mM glucose, 10 mM CaCl2 and 0.0003 mM tetrodotoxin (TTX, pH 7.4, 320 mOsm). […]

T1 sequence (O95180 whole entry): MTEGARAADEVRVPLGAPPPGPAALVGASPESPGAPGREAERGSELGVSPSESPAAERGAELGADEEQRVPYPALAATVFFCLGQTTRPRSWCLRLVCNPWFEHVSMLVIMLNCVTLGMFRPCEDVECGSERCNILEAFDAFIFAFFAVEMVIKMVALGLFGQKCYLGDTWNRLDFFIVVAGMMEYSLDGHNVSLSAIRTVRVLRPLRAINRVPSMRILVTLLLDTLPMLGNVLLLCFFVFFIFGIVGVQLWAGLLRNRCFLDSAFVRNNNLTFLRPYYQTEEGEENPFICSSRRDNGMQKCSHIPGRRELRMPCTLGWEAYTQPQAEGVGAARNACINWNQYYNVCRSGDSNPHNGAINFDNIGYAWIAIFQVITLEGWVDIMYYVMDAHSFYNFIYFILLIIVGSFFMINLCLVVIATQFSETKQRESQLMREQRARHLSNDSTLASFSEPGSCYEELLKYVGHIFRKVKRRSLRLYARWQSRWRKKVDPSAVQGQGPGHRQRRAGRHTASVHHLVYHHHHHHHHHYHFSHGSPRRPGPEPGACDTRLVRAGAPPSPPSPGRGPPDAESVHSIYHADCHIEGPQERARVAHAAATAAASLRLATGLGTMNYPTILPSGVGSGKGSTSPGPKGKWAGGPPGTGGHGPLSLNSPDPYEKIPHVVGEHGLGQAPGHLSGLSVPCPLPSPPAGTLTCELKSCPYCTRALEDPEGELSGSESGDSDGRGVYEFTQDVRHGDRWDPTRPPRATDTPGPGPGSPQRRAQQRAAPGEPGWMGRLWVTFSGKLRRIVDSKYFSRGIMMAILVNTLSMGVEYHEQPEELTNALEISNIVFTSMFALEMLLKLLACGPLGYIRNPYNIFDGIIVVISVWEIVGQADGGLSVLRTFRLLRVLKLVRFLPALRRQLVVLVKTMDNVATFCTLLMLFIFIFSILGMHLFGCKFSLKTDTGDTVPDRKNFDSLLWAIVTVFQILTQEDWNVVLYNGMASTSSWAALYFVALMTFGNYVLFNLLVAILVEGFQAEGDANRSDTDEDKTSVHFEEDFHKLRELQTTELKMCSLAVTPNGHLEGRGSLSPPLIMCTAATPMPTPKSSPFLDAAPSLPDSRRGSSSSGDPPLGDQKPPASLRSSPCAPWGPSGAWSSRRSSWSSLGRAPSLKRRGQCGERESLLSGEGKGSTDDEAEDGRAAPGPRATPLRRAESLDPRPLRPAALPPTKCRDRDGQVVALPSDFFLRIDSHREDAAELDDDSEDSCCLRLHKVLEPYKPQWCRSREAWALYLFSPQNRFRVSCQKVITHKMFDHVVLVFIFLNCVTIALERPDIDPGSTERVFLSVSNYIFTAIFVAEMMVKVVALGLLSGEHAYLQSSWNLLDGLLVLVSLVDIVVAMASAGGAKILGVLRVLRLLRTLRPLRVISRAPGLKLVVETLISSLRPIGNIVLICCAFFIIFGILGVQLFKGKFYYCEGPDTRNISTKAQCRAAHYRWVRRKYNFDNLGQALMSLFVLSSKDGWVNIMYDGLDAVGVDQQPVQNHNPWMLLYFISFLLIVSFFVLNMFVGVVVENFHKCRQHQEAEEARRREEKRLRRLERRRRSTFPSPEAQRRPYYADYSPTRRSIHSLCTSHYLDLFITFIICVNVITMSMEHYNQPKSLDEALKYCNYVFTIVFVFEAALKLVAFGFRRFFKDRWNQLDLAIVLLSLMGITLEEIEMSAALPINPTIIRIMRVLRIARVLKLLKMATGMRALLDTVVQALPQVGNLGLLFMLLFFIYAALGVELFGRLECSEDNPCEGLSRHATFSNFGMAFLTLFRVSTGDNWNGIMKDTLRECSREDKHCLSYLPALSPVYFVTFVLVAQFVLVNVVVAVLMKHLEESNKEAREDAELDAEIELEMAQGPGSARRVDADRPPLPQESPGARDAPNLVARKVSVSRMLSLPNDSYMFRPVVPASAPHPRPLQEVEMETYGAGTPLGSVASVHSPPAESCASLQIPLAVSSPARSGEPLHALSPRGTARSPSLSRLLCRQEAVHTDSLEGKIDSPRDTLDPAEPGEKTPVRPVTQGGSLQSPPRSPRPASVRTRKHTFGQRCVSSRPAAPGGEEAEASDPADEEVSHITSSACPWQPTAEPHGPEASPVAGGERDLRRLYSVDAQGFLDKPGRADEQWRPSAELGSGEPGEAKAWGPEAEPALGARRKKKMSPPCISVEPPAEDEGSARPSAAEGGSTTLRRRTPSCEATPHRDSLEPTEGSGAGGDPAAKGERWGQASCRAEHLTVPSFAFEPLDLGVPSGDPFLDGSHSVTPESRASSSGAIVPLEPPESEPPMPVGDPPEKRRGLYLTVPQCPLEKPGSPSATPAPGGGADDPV

Row | inhibition at 100 µM [1] [%] | SMILES | selectivity for the calcium channel versus the sodium channel [2] | Inhibitory effect, Na+ channel [2]
1 | 77 | O=C(CC1c2ccccc2N=C(N2CCCCC2)N1c1ccccc1)NCc1ccccc1 (stereo not drawn) [KYS05001] | higher selectivity for the calcium channel than the sodium channel | n.i.^b
2 | 84.7 | Cc1ccc(S(=O)(=O)Nc2ccc(CNC(=O)CC3c4ccccc4N=C(N4CCCCC4)N3c3ccccc3)cc2)cc1 (stereo not drawn) [KYS05041, 4-{N-[4-(4-methylbenzenesulfonylamido)benzyl]acetamido}-3-phenyl-2-(piperidine-1-yl)-3,4-dihydroquinazoline] | higher selectivity for the calcium channel than the sodium channel | n.i.^b
3 | 80.5 | O=C(CC1c2ccccc2N=C(N2CCCCC2)N1c1ccccc1)NCc1ccc(NS(=O)(=O)c2ccc(F)cc2)cc1 (stereo not drawn) [KYS05042, 4-{N-[4-(4-fluorobenzenesulfonylamido)benzyl]acetamido}-3-phenyl-2-(piperidine-1-yl)-3,4-dihydroquinazoline] | higher selectivity for the calcium channel than the sodium channel | n.i.^b

Reference: patent US7271260B2, “3,4-dihydroquinazoline derivatives as T-type calcium channel blockers and method of preparing the same” (Korea Institute of Science and Technology, priority 2004, dated 2007)
